Data as given in patent US20230138851A1, “NOVEL ALKYNE DERIVATIVES” (CARNA BIOSCIENCES, INC., priority 2020, published 2023).

Legend:
Format in all cases: biochemical
DYRK1A = target: T1, DYRK1A (Homo sapiens, UniProt Q13627); assay: Inhibition test on activity of DYRK family, mobility shift assay (MSA), DYRK1A; conditions: ATP 100 μM, FITC-labeled DYRKtide peptide substrate, room temperature 1 hour
T1 construct: purchased Carna Biosciences, Inc. 04-130
Summary of the method: (§1)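 FITC-DYRKtide phosphorylation in 20 mM HEPES pH 7.5 with MgCl2; ATP in the substrate mix was 100 μM (DYRK1A), 200 μM (DYRK1B), 40 μM (DYRK2) or 20 μM (DYRK3). Reactions ran 1 h at room temperature; inhibition from P/(P+S) versus blank and DMSO control, IC50 by regression on log concentration.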

DYRK3 = target: T2, DYRK3 (Homo sapiens, UniProt O43781); assay: Inhibition test on activity of DYRK family, mobility shift assay (MSA), DYRK3; conditions: ATP 20 μM, FITC-labeled DYRKtide peptide substrate, room temperature 1 hour; for IC50: read-out: Inhibitory Activity 3 (IC50 against DYRK3)
T2 construct: purchased Carna Biosciences, Inc. 04-133
T2 sequence (O43781 1-588): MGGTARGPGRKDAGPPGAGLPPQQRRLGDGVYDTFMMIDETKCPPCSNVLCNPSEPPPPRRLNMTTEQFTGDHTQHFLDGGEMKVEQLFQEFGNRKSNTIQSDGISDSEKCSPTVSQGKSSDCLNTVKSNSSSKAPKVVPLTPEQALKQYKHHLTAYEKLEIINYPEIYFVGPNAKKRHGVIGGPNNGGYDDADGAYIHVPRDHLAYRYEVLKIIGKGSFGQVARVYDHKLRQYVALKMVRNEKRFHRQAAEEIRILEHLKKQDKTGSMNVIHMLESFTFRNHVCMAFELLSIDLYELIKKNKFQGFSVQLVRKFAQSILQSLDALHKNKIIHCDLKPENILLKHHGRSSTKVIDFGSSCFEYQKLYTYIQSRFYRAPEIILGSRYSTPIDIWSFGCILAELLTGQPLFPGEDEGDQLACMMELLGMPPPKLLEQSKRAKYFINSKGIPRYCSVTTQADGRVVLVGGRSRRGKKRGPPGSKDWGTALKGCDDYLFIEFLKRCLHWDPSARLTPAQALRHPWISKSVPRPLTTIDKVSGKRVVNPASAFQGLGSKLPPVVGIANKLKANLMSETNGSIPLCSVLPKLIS
Summary of the method: as §1

DYRK1B = target: T3, DYRK1B (Homo sapiens, UniProt Q9Y463); assay: Inhibition test on activity of DYRK family, mobility shift assay (MSA), DYRK1B; design: Inhibitory Activity 1b (IC50 against DYRK1B): scale not given here; conditions: ATP 200 μM, FITC-labeled DYRKtide peptide substrate, room temperature 1 hour
T3 construct: purchased Carna Biosciences, Inc. 04-131
T3 sequence (Q9Y463 whole entry): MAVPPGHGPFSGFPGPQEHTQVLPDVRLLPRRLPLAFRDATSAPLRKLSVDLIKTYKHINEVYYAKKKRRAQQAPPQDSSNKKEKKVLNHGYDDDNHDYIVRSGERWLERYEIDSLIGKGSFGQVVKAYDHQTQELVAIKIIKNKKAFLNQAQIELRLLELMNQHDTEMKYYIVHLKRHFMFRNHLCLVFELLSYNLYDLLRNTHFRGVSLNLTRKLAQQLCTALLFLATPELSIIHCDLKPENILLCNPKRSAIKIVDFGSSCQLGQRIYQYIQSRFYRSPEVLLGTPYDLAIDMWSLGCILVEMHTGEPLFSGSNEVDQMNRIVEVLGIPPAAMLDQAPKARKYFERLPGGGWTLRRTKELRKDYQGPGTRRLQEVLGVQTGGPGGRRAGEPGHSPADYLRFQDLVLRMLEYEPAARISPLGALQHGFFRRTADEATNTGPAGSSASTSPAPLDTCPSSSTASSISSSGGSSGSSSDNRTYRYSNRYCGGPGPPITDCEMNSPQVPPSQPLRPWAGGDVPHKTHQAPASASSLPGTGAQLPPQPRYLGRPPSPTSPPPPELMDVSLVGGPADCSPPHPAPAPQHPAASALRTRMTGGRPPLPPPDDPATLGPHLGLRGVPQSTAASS
Experimental: [Inhibition Test on Activity of DYRK Family (DYRK1A, DYRK1B, DYRK2, and […])]
(Method for Measuring Kinase Activity)
The kinase activity was measured by mobility shift assay (MSA) method using QuickScout Screening Assist™ MSA (commercially available kit manufactured by Carna Biosciences, Inc.). The substrate of the kinase reaction used was an FITC-labeled DYRKtide peptide included in the kit. An assay buffer [20 mM HEPES, 0.01% Triton X-100™, 2 mM dithiothreitol, pH 7.5] was used to create a substrate mixture solution with a substrate (4 μM), MgCl2 (20 mM), and ATP (DYRK1A: 100 μM; DYRK1B: 200 μM; DYRK2: 40 μM; and DYRK3: 20 μM). In addition, kinases (DYRK1A: manufactured by Carna Biosciences, Inc., Cat. No. 04-130; DYRK1B: manufactured by Carna Biosciences, Inc., Cat. No. 04-131; DYRK2; manufactured by Carna Biosciences, Inc., Cat. No. 04-132; and DYRK3; manufactured by Carna Biosciences, Inc., Cat. No. 04-133) were diluted with the assay buffer to prepare enzyme solutions (DYRK1A: 0.2 ng/μL; DYRK1B: 0.08 ng/μL; DYRK2: 0.04 ng/μL; and DYRK3: 0.25 ng/μL). The 10 mM solution of the test compound in DMSO was further diluted with DMSO to 10 levels of the concentration (0.00003 mM, 0.0001 mM, 0.0003 mM, 0.001 mM, 0.003 mM, 0.01 mM, 0.03 mM, 0.1 mM, 0.3 mM, and 1 mM), each of which was subjected to 25-fold dilution with the assay buffer to obtain a drug solution (4% DMSO solution). 5 μL of the drug solution or a control solution (4% DMSO-assay buffer), 5 μL of the substrate mixture solution, and 10 μL of the enzyme solution were mixed in the wells of a polypropylene 384-well plate and allowed to react at room temperature for 1 hour, and then the reaction was quenched by adding 60 μL of the termination buffer included in the kit. Subsequently, the quantities of the substrates (S) and the phosphorylated substrate (P) in the reaction solution were measured using LabChip EZ Reader II system (manufactured by Caliper Life Sciences) according to the protocol of the assay kit.
(Method for Evaluating Inhibitory Activity)
The heights of the peaks of the “substrate” and the “phosphorylated substrate” were expressed as S and P, respectively, and a blank containing the assay buffer instead of the enzyme solution was also measured.
The inhibition rate (%) of the test compound was calculated according to the following equation:
Inhibition rate (%)=(1−(C−A)/(B−A))×100
wherein, A, B, and C represent P/(P+S) of the blank well, P/(P+S) of the control solution well, and P/(P+S) of the compound-containing well, respectively.
The IC50 value was calculated via a regression analysis of the inhibition rate and the test compound concentration (logarithmic value).
The inhibiting activities of representative compounds of the present invention are shown against DYRK1A, DYRK1B, DYRK2, and DYRK3 in Tables 7 and 8. The kinase activity inhibitory effect was indicated with the mark *** at an IC50 value of less than 0.01 μM; the mark ** at 0.01 μM or more and less than 0.1 μM; the mark * at 0.1 μM or more and less than 1 μM; and the mark — at 1 μM or more (N.D. indicates not measured).

DYRK2 = target: T4, DYRK2 (Homo sapiens, UniProt Q92630); assay: Inhibition test on activity of DYRK family, mobility shift assay (MSA), DYRK2; conditions: ATP 40 μM, FITC-labeled DYRKtide peptide substrate, room temperature 1 hour; for IC50: read-out: Inhibitory Activity 2 (IC50 against DYRK2)
T4 construct: purchased Carna Biosciences, Inc. 04-132
T4 sequence (Q92630 1-601): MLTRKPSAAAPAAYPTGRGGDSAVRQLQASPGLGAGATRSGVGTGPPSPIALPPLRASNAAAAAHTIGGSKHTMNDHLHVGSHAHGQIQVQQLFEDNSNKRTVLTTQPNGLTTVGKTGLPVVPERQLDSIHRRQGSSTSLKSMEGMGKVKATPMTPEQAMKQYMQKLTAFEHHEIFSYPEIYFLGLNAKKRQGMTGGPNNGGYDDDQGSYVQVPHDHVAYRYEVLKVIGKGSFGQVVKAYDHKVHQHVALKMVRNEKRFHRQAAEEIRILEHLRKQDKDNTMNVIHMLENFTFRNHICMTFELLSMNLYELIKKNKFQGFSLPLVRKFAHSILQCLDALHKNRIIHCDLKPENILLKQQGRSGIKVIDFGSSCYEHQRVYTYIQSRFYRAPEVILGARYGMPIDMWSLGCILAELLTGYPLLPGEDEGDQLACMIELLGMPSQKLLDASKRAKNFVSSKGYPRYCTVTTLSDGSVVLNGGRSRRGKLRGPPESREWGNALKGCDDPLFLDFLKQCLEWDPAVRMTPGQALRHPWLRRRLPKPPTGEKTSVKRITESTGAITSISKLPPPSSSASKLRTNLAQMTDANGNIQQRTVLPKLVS
Summary of the method: as §1

Compound	Inhibitory Activity 1a (IC50 against DYRK1A) (DYRK1A)	IC50 (DYRK3)	Inhibitory Activity 1b (IC50 against DYRK1B) (DYRK1B)	IC50 (DYRK2)	Inhibitory Activity 3 (IC50 against DYRK3) (DYRK3)	Inhibitory Activity 2 (IC50 against DYRK2) (DYRK2)
CC#CC1CNC(=O)N1c1nc2c(ccc3ncn(CCOC)c32)s1 (racemic) [Example 33, (RS)-1-[8-(2-methoxyethyl)-8H-imidazo[4′,5′:5,6]benz[1,2-d]thiazol-2-yl]-5-(prop-1-yn-1-yl)imidazolidin-2-one]	* *	100 to 1000 nM	* *	100 to 1000 nM	–	–
CC#C[C@@H]1CNC(=O)N1c1nc2c3c(ccc2s1)OCO3 [Example 2, (R)-1-([1,3]dioxolo[4′,5′:5,6]benzo[1,2-d]thiazol-7-yl)-5-(1-propyn-1-yl)imidazolidin-2-one]	* * *	–	* * *	–	* *	* *
CC#CC1CNC(=O)N1c1nc2c3c(ccc2s1)OCO3 (racemic) [Example 1, (RS)-1-([1,3]dioxolo[4′,5′:5,6]benzo[1,2-d]thiazol-7-yl)-5-(prop-1-yn-1-yl)imidazolidin-2-one]	* * *	–	* * *	100 to 1000 nM	* *	–
CC#CC1CNC(=O)N1c1nc2c3c(ccc2s1)OCC3 (racemic) [Example 8, (RS)-1-(7,8-dihydrobenzofuro[4,5-d]thiazol-2-yl)-5-(prop-1-yn-1-yl)imidazolidin-2-one]	* * *	–	* * *	100 to 1000 nM	* *	–
CC#CC1CNC(=O)N1c1nc2c(ccc3ncn(C)c32)s1 (racemic) [Example 26, (RS)-1-(8-methyl-8H-imidazo[4′,5′:5,6]benz[1,2-d]thiazol-2-yl)-5-(prop-1-yn-1-yl)imidazolidin-2-one]	* * *	–	* * *	100 to 1000 nM	* *	–
CC#CC1CNC(=O)N1c1nc2c(ccc3ncn(CCO)c32)s1 (racemic) [Example 31, (RS)-1-[8-(2-hydroxyethyl)-8H-imidazo[4′,5′:5,6]benz[1,2-d]thiazol-2-yl]-5-(prop-1-yn-1-yl)imidazolidin-2-one]	* * *	100 to 1000 nM	* * *	100 to 1000 nM	–	–
